Assay results published in ChEMBL document CHEMBL1129939, “Meta-substituted benzofused macrocyclic lactams as zinc metalloprotease inhibitors” (J Med Chem, 1997).

Key:
[1] = target: Angiotensin-converting enzyme (Homo sapiens, UniProt P12821); test: Inhibitory concentration required to inhibit Angiotensin I converting enzyme (ACE)
[2] = target: Neprilysin (Homo sapiens, UniProt P08473); test: Inhibitory concentration required to inhibit neutral endopeptidase (NEP)
[3] = target: T1, Thermolysin (Bacillus thermoproteolyticus, UniProt P00800); test: Inhibitory concentration required to inhibit thermolysin (TLN)
T1 sequence (P00800 whole entry): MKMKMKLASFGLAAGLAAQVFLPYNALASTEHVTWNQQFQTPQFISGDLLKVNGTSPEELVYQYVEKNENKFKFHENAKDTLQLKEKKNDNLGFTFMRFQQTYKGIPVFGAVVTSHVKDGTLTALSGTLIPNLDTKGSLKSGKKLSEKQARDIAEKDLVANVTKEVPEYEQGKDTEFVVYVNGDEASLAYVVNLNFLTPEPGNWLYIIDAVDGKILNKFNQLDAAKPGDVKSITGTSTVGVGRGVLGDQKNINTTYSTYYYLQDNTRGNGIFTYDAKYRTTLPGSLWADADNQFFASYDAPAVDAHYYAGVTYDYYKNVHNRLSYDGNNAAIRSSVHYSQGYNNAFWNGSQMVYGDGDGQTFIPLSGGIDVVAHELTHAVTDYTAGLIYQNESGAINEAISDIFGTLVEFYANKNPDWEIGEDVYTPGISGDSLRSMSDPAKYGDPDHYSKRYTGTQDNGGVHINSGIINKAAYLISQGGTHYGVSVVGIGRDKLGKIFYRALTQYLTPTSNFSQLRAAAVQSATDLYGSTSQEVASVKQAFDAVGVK

Sequence of Neprilysin (P08473 whole entry): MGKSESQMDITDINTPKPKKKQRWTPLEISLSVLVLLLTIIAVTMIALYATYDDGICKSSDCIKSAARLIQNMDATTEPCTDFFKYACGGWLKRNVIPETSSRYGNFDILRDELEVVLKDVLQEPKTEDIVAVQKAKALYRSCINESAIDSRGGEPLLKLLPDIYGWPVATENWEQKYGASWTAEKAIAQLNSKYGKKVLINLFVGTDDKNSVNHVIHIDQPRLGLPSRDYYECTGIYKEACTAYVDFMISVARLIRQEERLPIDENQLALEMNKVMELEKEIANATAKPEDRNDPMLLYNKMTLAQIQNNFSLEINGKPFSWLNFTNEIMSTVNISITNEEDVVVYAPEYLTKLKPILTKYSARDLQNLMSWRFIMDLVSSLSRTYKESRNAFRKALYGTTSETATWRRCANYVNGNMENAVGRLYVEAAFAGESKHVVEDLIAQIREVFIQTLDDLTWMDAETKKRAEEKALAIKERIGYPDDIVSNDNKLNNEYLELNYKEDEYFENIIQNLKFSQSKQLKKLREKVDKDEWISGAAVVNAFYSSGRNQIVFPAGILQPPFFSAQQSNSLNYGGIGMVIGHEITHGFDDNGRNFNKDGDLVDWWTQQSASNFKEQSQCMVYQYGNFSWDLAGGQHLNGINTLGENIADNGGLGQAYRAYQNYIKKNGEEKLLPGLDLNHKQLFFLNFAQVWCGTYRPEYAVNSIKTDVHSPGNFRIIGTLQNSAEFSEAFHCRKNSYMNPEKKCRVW
Sequence of Angiotensin-converting enzyme (P12821 whole entry): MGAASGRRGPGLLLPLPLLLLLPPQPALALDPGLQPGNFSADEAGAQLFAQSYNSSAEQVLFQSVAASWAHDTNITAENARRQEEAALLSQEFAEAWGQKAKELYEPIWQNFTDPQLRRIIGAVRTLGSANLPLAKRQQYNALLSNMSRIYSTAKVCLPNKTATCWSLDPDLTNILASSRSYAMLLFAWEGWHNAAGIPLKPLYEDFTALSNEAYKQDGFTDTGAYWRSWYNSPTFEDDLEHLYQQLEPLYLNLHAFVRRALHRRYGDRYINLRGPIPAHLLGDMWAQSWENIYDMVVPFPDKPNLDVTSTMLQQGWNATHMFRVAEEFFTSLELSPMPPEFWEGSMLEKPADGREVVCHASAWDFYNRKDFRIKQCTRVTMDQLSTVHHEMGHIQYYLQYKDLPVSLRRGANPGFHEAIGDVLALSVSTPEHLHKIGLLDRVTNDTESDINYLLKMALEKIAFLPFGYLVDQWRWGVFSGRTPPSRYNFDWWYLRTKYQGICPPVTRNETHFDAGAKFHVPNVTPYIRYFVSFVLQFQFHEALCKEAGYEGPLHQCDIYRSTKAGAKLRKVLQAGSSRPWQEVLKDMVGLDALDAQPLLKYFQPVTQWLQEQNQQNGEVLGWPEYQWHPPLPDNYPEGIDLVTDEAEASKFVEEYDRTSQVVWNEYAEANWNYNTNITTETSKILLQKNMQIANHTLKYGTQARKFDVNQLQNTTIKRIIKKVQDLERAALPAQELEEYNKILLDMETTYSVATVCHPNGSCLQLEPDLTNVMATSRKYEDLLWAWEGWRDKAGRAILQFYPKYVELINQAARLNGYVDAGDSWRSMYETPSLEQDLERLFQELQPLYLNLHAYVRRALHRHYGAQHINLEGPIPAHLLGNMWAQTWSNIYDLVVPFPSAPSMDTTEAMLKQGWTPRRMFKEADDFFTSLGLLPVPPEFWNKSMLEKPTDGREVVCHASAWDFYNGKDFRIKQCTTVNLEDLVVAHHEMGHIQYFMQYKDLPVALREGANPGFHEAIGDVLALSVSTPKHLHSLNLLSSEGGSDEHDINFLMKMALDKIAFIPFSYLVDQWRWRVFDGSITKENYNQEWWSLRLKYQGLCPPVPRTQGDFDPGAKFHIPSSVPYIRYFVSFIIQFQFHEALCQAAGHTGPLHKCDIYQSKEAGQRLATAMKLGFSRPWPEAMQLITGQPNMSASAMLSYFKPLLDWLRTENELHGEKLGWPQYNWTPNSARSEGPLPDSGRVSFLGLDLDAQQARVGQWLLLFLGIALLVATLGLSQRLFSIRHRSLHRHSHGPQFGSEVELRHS

SMILES | IC50 [1] [µM] | IC50 [2] [µM] | IC50 [3] [µM]
O=C1N[C@H](C(=O)O)CCCCCc2cccc(c2)C[C@H]1CS | 1.4 | 1 | > 10
O=C1N[C@H](C(=O)O)CCCCCc2ccccc2C[C@@H]1CS | 8 |  | 
O=C1N[C@H](C(=O)O)CCCCCc2cccc(c2)C[C@@H]1CS | 0.004 | 0.008 | 48
O=C1N[C@H](C(=O)O)CCCCCCc2ccccc2C[C@@H]1CS | > 10 | 0.027 | 1.8
O=C1N[C@@H](C(=O)O)Cc2ccccc2CCCCCC[C@@H]1CS | 0.47 |  | 
O=C1N[C@H](C(=O)O)CCCCc2ccccc2C[C@H]1CS | > 10 |  | 
C[C@H](CS)C(=O)N1Cc2[nH]c3ccccc3c2CC1C(=O)O (some centres not stated) | 0.5 |  | 
O=C1N[C@H](C(=O)O)CCCCc2ccccc2C[C@@H]1CS | > 10 |  | 
O=C1N[C@H](C(=O)O)CCCCCCc2cccc(c2)C[C@@H]1CS | 0.175 | 0.004 | 34

The next lines start with the values.

IC50 [1] [µM] | IC50 [2] [µM] | IC50 [3] [µM] | SMILES
0.118 | 0.445 | > 10 | O=C1N[C@H](C(=O)O)CCCCCCc2cccc(c2)C[C@H]1CS
2 |  |  | O=C1N[C@H](C(=O)O)CCCCCc2ccccc2C[C@H]1CS
0.725 |  |  | O=C1N[C@H](C(=O)O)Cc2ccccc2CCCCCC[C@@H]1CS
6 |  |  | O=C1N[C@@H](C(=O)O)Cc2ccccc2CCCCC[C@@H]1CS
> 10 | 0.224 | 41 | O=C1N[C@H](C(=O)O)CCCCCCc2ccccc2C[C@H]1CS
> 10 |  |  | O=C1N[C@@H](C(=O)O)Cc2ccccc2CCCCCCC[C@@H]1CS
